Measured values reported in patent US20100099561A1, “HETEROBICYCLIC ALKYLTHIO-BRIDGED ISOXAZOLINES” (E.I. DU PONT DE NEMOURS AND COMPANY, priority 2008, published 2010).

How the values were obtained:
Format in all cases: in vivo
[1] = test system: barnyardgrass (Echinochloa crus-galli); assay: Test A preemergence, barnyardgrass; conditions: 0 to 100 scale (0 no effect, 100 complete control)
Summary of the method: (§1)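 Visual injury scored 0 (no effect) to 100 (complete control) against untreated plants roughly ten days after greenhouse treatment. Postemergence sprays hit one- to two-leaf plants 2–10 cm high; preemergence was a directed spray onto loam–sand soil, both using surfactant-containing solvent formulations.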

[2] = test system: large crabgrass (Digitaria sanguinalis); assay: Test A preemergence, large crabgrass; conditions: 0 to 100 scale (0 no effect, 100 complete control)
Summary of the method: as §1

[3] = test system: giant foxtail (Setaria faberi); assay: Test A preemergence, giant foxtail; conditions: 0 to 100 scale (0 no effect, 100 complete control)
Summary of the method: as §1

[4] = test system: velvetleaf (Abutilon theophrasti); assay: Test A preemergence, velvetleaf; conditions: 0 to 100 scale (0 no effect, 100 complete control)
Summary of the method: as §1

[5] = test system: corn (Zea mays); assay: Test A preemergence, corn; conditions: 0 to 100 scale (0 no effect, 100 complete control)
Summary of the method: as §1

[6] = test system: giant foxtail (Setaria faberi); assay: Test A postemergence, giant foxtail; conditions: 0 to 100 scale (0 no effect, 100 complete control)
Summary of the method: as §1

[7] = test system: pigweed (Amaranthus retroflexus); assay: Test A postemergence, pigweed; conditions: 0 to 100 scale (0 no effect, 100 complete control)
Summary of the method: as §1

[8] = test system: velvetleaf (Abutilon theophrasti); assay: Test A postemergence, velvetleaf; conditions: 0 to 100 scale (0 no effect, 100 complete control)
Summary of the method: as §1

[9] = test system: corn (Zea mays); assay: Test A postemergence, corn; conditions: 0 to 100 scale (0 no effect, 100 complete control)
Summary of the method: as §1

[10] = test system: green foxtail (Setaria viridis); assay: Test B preemergence, green foxtail; conditions: scale 0 to 100
Excerpt: (§2) Seeds of plant species selected from blackgrass (Alopecurus myosuroides), downy bromegrass (Bromus tectorum), green foxtail (Setaria viridis), Italian ryegrass (Lolium multiflorum), wheat (Triticum aestivum), wild oat (Avena fatua), catchweed bedstraw (Galium aparine), bermudagrass (Cynodon dactylon), Surinam grass (Brachiaria decumbens), cocklebur (Xanthium strumarium), corn (Zea mays), large crabgrass (Digitaria sanguinalis), woolly cupgrass (Eriochloa villosa), giant foxtail (Setaria faberii), goosegrass (Eleusine indica), johnsongrass (Sorghum halepense), kochia (Kochia scoparia), lambsquarters (Chenopodium album), morningglory (Ipomoea coccinea), nightshade (eastern black nightshade, Solanum ptycanthum), yellow nutsedge (Cyperus esculentus), pigweed (Amaranthus retroflexus), ragweed (common ragweed, Ambrosia elatior), soybean (Glycine max), sunflower (common oilseed sunflower, Helianthus annuus), Russian thistle (Salsola kali), and velvetleaf (Abutilon theophrasti) were planted into a blend of loam soil and sand and treated preemergence with test compounds formulated in a non-phytotoxic solvent mixture which included a surfactant. Treated plants and controls were maintained in a greenhouse for 13 to 15 days, after which time all species were compared to controls and visually evaluated. Plant response ratings, summarized in Table B, are based on a scale of 0 to 100 where 0 is no effect and 100 is complete control. A dash (-) response means no test result.

[11] = test system: cocklebur (Xanthium strumarium); assay: Test B preemergence, cocklebur; conditions: scale 0 to 100
Excerpt: as §2

[12] = test system: corn (Zea mays); assay: Test B preemergence, corn; conditions: scale 0 to 100
Excerpt: as §2

[13] = test system: giant foxtail (Setaria faberii); assay: Test B preemergence, giant foxtail; conditions: scale 0 to 100
Excerpt: as §2

[14] = test system: goosegrass (Eleusine indica); assay: Test B preemergence, goosegrass; conditions: scale 0 to 100
Excerpt: as §2

[15] = test system: johnsongrass (Sorghum halepense); assay: Test B preemergence, johnsongrass; conditions: scale 0 to 100
Excerpt: as §2

[16] = test system: sunflower (common oilseed sunflower, Helianthus annuus); assay: Test B preemergence, sunflower; conditions: Preemergence, scale 0 to 100
Summary of the method: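 Test compounds, formulated in a non-phytotoxic solvent mixture with surfactant, were applied before emergence to seeds planted in a blend of loam soil and sand. Plants were held in a greenhouse for 13 to 15 days and scored visually relative to controls, where 100 denotes complete control.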

[17] = test system: rice (Oryza sativa); assay: Test B flooded paddy test, rice; conditions: Flood, scale 0 to 100
Summary of the method: (§3)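 Step one: raise plants to 2 leaves. Step two: flood pots 3 cm over the soil and apply compound into the water, keeping this depth. Step three: after 13–15 greenhouse days, score visually versus controls, 0–100, where 100 means complete control.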

[18] = test system: umbrella sedge (Cyperus difformis); assay: Test B flooded paddy test, umbrella sedge; conditions: Flood, scale 0 to 100
Summary of the method: as §3

[19] = test system: ducksalad (Heteranthera limosa); assay: Test B flooded paddy test, ducksalad; conditions: Flood, scale 0 to 100
Summary of the method: as §3

[20] = test system: barnyardgrass (Echinochloa crus-galli); assay: Test B flooded paddy test, barnyardgrass; conditions: Flood
Summary of the method: as §3

[21] = 250 g ai/ha, scale 0 to 100 (0 no effect, 100 complete control)

## CC1(C)CC(S(=O)(=O)Cc2c(C(F)(F)Cl)nc3n(c2=O)CCC3)=NO1 [Compound 18]
[1]; 125 g ai/ha
  Plant response rating, Barnyardgrass: 70
[1]; 500 g ai/ha
  Plant response rating, Barnyardgrass: 100
[2]; 125 g ai/ha
  Plant response rating, Crabgrass, Large: 90
[2]; 500 g ai/ha
  Plant response rating, Crabgrass, Large: 100
[3]; 125 g ai/ha
  Plant response rating, Foxtail, Giant: 90
[3]; 500 g ai/ha
  Plant response rating, Foxtail, Giant: 100
[4]; 125 g ai/ha
  Plant response rating, Velvetleaf: 0
[4]; 500 g ai/ha
  Plant response rating, Velvetleaf: 60
[5]; 125 g ai/ha
  Plant response rating, Corn: 0
[5]; 500 g ai/ha
  Plant response rating, Corn: 0
[6]; 125 g ai/ha
  Plant response rating, Foxtail, Giant: 70
[6]; 500 g ai/ha
  Plant response rating, Foxtail, Giant: 80
[7]; 125 g ai/ha
  Plant response rating, Pigweed: 30
[7]; 500 g ai/ha
  Plant response rating, Pigweed: 40
[8]; 125 g ai/ha
  Plant response rating, Velvetleaf: 30
[8]; 500 g ai/ha
  Plant response rating, Velvetleaf: 60
[9]; 125 g ai/ha
  Plant response rating, Corn: 0
[9]; 500 g ai/ha
  Plant response rating, Corn: 40
[10]; 16 g ai/ha
  Plant response rating, Foxtail, Green: 30
[10]; 31 g ai/ha
  Plant response rating, Foxtail, Green: 80
[10]; 62 g ai/ha
  Plant response rating, Foxtail, Green: 98
[10]; 125 g ai/ha
  Plant response rating, Foxtail, Green: 98
[11]; 16 g ai/ha
  Plant response rating, Cocklebur: 0
[11]; 31 g ai/ha
  Plant response rating, Cocklebur: 0
[11]; 62 g ai/ha
  Plant response rating, Cocklebur: 0
[11]; 125 g ai/ha
  Plant response rating, Cocklebur: 0
[12]; 16 g ai/ha
  Plant response rating, Corn: 0
[12]; 31 g ai/ha
  Plant response rating, Corn: 0
[12]; 62 g ai/ha
  Plant response rating, Corn: 0
[12]; 125 g ai/ha
  Plant response rating, Corn: 0
[13]; 16 g ai/ha
  Plant response rating, Foxtail, Giant: 0
[13]; 31 g ai/ha
  Plant response rating, Foxtail, Giant: 80
[13]; 62 g ai/ha
  Plant response rating, Foxtail, Giant: 85
[13]; 125 g ai/ha
  Plant response rating, Foxtail, Giant: 98
[14]; 16 g ai/ha
  Plant response rating, Goosegrass: 0
[14]; 31 g ai/ha
  Plant response rating, Goosegrass: 95
[14]; 62 g ai/ha
  Plant response rating, Goosegrass: 98
[14]; 125 g ai/ha
  Plant response rating, Goosegrass: 98
[15]; 16 g ai/ha
  Plant response rating, Johnsongrass: 15
[15]; 31 g ai/ha
  Plant response rating, Johnsongrass: 20
[15]; 62 g ai/ha
  Plant response rating, Johnsongrass: 60
[15]; 125 g ai/ha
  Plant response rating, Johnsongrass: 85
[16]; 16 g ai/ha
  Plant response rating, Sunflower: 0
[16]; 31 g ai/ha
  Plant response rating, Sunflower: 0
[16]; 62 g ai/ha
  Plant response rating, Sunflower: 0
[16]; 125 g ai/ha
  Plant response rating, Sunflower: 0
[17]; 31 g ai/ha
  Plant response rating, Rice: 0
[17]; 62 g ai/ha
  Plant response rating, Rice: 0
[17]; 125 g ai/ha
  Plant response rating, Rice: 0
[17]; 250 g ai/ha
  Plant response rating, Rice: 0
[18]; 31 g ai/ha
  Plant response rating, Sedge, Umbrella: 0
[18]; 62 g ai/ha
  Plant response rating, Sedge, Umbrella: 0
[18]; 125 g ai/ha
  Plant response rating, Sedge, Umbrella: 0
[18]; 250 g ai/ha
  Plant response rating, Sedge, Umbrella: 0
[19]; 31 g ai/ha
  Plant response rating, Ducksalad: 0
[19]; 62 g ai/ha
  Plant response rating, Ducksalad: 0
[19]; 125 g ai/ha
  Plant response rating, Ducksalad: 0
[19]; 250 g ai/ha
  Plant response rating, Ducksalad: 0
[20]; 31 g ai/ha, scale 0 to 100
  Plant response rating, Barnyardgrass: 0
[20]; 62 g ai/ha, scale 0 to 100
  Plant response rating, Barnyardgrass: 0
[20]; 125 g ai/ha, scale 0 to 100
  Plant response rating, Barnyardgrass: 0
[20]; [21]
  Plant response rating, Barnyardgrass: 0

## CC1(C)CC(S(=O)(=O)Cc2c(C(F)(F)F)nc3n(c2=O)CCS3)=NO1 [Compound 6]
[1]; 125 g ai/ha
  Plant response rating, Barnyardgrass: 70
[1]; 500 g ai/ha
  Plant response rating, Barnyardgrass: 90
[2]; 125 g ai/ha
  Plant response rating, Crabgrass, Large: 80
[2]; 500 g ai/ha
  Plant response rating, Crabgrass, Large: 100
[3]; 125 g ai/ha
  Plant response rating, Foxtail, Giant: 80
[3]; 500 g ai/ha
  Plant response rating, Foxtail, Giant: 100
[4]; 125 g ai/ha
  Plant response rating, Velvetleaf: 0
[4]; 500 g ai/ha
  Plant response rating, Velvetleaf: 80
[5]; 125 g ai/ha
  Plant response rating, Corn: 0
[5]; 500 g ai/ha
  Plant response rating, Corn: 0
[6]; 125 g ai/ha
  Plant response rating, Foxtail, Giant: 80
[6]; 500 g ai/ha
  Plant response rating, Foxtail, Giant: 90
[7]; 125 g ai/ha
  Plant response rating, Pigweed: 50
[7]; 500 g ai/ha
  Plant response rating, Pigweed: 90
[8]; 125 g ai/ha
  Plant response rating, Velvetleaf: 60
[8]; 500 g ai/ha
  Plant response rating, Velvetleaf: 80
[9]; 125 g ai/ha
  Plant response rating, Corn: 0
[9]; 500 g ai/ha
  Plant response rating, Corn: 0
[10]; 16 g ai/ha
  Plant response rating, Foxtail, Green: 50
[10]; 31 g ai/ha
  Plant response rating, Foxtail, Green: 50
[10]; 62 g ai/ha
  Plant response rating, Foxtail, Green: 50
[10]; 125 g ai/ha
  Plant response rating, Foxtail, Green: 100
[11]; 16 g ai/ha
  Plant response rating, Cocklebur: 0
[11]; 31 g ai/ha
  Plant response rating, Cocklebur: 0
[11]; 62 g ai/ha
  Plant response rating, Cocklebur: 0
[11]; 125 g ai/ha
  Plant response rating, Cocklebur: 0
[12]; 16 g ai/ha
  Plant response rating, Corn: 0
[12]; 31 g ai/ha
  Plant response rating, Corn: 0
[12]; 62 g ai/ha
  Plant response rating, Corn: 0
[12]; 125 g ai/ha
  Plant response rating, Corn: 0
[13]; 16 g ai/ha
  Plant response rating, Foxtail, Giant: 0
[13]; 31 g ai/ha
  Plant response rating, Foxtail, Giant: 95
[13]; 62 g ai/ha
  Plant response rating, Foxtail, Giant: 100
[13]; 125 g ai/ha
  Plant response rating, Foxtail, Giant: 100
[14]; 16 g ai/ha
  Plant response rating, Goosegrass: 100
[14]; 31 g ai/ha
  Plant response rating, Goosegrass: 100
[14]; 62 g ai/ha
  Plant response rating, Goosegrass: 100
[14]; 125 g ai/ha
  Plant response rating, Goosegrass: 100
[15]; 16 g ai/ha
  Plant response rating, Johnsongrass: 45
[15]; 31 g ai/ha
  Plant response rating, Johnsongrass: 70
[15]; 62 g ai/ha
  Plant response rating, Johnsongrass: 98
[15]; 125 g ai/ha
  Plant response rating, Johnsongrass: 100
[16]; 16 g ai/ha
  Plant response rating, Sunflower: 0
[16]; 31 g ai/ha
  Plant response rating, Sunflower: 0
[16]; 62 g ai/ha
  Plant response rating, Sunflower: 0
[16]; 125 g ai/ha
  Plant response rating, Sunflower: 0
[17]; 62 g ai/ha
  Plant response rating, Rice: 20
[17]; 250 g ai/ha
  Plant response rating, Rice: 20
[18]; 62 g ai/ha
  Plant response rating, Sedge, Umbrella: 0
[18]; 250 g ai/ha
  Plant response rating, Sedge, Umbrella: 75
[19]; 62 g ai/ha
  Plant response rating, Ducksalad: 40
[19]; 250 g ai/ha
  Plant response rating, Ducksalad: 65
[20]; 62 g ai/ha, scale 0 to 100
  Plant response rating, Barnyardgrass: 0
[20]; [21]
  Plant response rating, Barnyardgrass: 0
